#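 Assay format: 96-well plates, 48-hour exposure. Definition used: TGI = concentration required for complete inhibition of growth.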
# Assays:
# Assay in all cases: NCI anticancer screen, dose series, 48 h
# [1] = tested on: 786-0 renal
# [2] = tested on: A498 renal
# [3] = tested on: A549 NSCLC
# [4] = tested on: ACHN renal
# [5] = tested on: CAKI-1 renal
# [6] = tested on: COLO 205 colon
# [7] = tested on: DU-145 prostate
# [8] = tested on: EKVX NSCLC
# [9] = tested on: HCC-2998 colon
# [10] = tested on: HCT-116 colon
# [11] = tested on: HCT-15 colon
# [12] = tested on: HL-60(TB) leukemia
# [13] = tested on: HOP-62 NSCLC
# [14] = tested on: HOP-92 NSCLC
# [15] = tested on: HS 578T breast
# [16] = tested on: HT29 colon
# [17] = tested on: IGROV1 ovarian
# [18] = tested on: K-562 leukemia
# [19] = tested on: KM12 colon
# [20] = tested on: LOX IMVI melanoma
# [21] = tested on: M14 melanoma
# [22] = tested on: MALME-3M melanoma
# [23] = tested on: MCF7 breast
# [24] = tested on: MDA-MB-231 breast
# [25] = tested on: MDA-MB-435
# [26] = tested on: MDA-N
# [27] = tested on: MOLT-4 leukemia
# [28] = tested on: NCI-H226 lung
# [29] = tested on: NCI-H23 lung
# [30] = tested on: NCI-H460 lung
# [31] = tested on: NCI/ADR-RES ovarian
# [32] = tested on: OVCAR-3 ovarian
# [33] = tested on: OVCAR-4 ovarian
# [34] = tested on: OVCAR-5 ovarian
# [35] = tested on: OVCAR-8 ovarian
# [36] = tested on: PC-3 prostate
# [37] = tested on: RPMI-8226 leukemia
# [38] = tested on: RXF 393 renal
# [39] = tested on: SF-268 CNS
# [40] = tested on: SF-295 CNS
# [41] = tested on: SF-539 CNS
# [42] = tested on: SK-MEL-2 melanoma
# [43] = tested on: SK-MEL-28 melanoma
# [44] = tested on: SK-OV-3 ovarian
# [45] = tested on: SN12C renal
# [46] = tested on: SNB-19 CNS
# [47] = tested on: SNB-75 CNS
# [48] = tested on: SR leukemia
# [49] = tested on: SW-620 colon
# [50] = tested on: T-47D breast
# [51] = tested on: TK-10 renal
# [52] = tested on: U251 CNS
# [53] = tested on: UACC-257 melanoma
# [54] = tested on: UACC-62 melanoma
# [55] = tested on: UO-31 renal
# [56] = tested on: CCRF-CEM leukemia
# [57] = tested on: NCI-H522 lung
# [58] = tested on: SK-MEL-5 melanoma
smiles,measurement,setting,value
CSC(Cc1ccc2c(c1)Sc1ccccc1O2)=[N+]1CCOCC1,TGI,[1],> 100 µM
same,TGI,[2],> 100 µM
same,TGI,[3],> 100 µM
same,TGI,[4],> 100 µM
same,TGI,[5],> 100 µM
same,TGI,[6],> 100 µM
same,TGI,[7],> 100 µM
same,TGI,[8],> 100 µM
same,TGI,[9],> 100 µM
same,TGI,[10],> 100 µM
same,TGI,[11],> 100 µM
same,TGI,[12],> 100 µM
same,TGI,[13],> 100 µM
same,TGI,[14],> 100 µM
same,TGI,[15],86.6 µM
same,TGI,[16],> 100 µM
same,TGI,[17],> 100 µM
same,TGI,[18],> 100 µM
same,TGI,[19],> 100 µM
same,TGI,[20],> 100 µM
same,TGI,[21],> 100 µM
same,TGI,[22],90.9 µM
same,TGI,[23],> 100 µM
same,TGI,[24],> 100 µM
same,TGI,[25],> 100 µM
same,TGI,[26],> 100 µM
same,TGI,[27],> 100 µM
same,TGI,[28],> 100 µM
same,TGI,[29],> 100 µM
same,TGI,[30],> 100 µM
same,TGI,[31],> 100 µM
same,TGI,[32],> 100 µM
same,TGI,[33],> 100 µM
same,TGI,[34],> 100 µM
same,TGI,[35],> 100 µM
same,TGI,[36],> 100 µM
same,TGI,[37],> 100 µM
same,TGI,[38],> 100 µM
same,TGI,[39],> 100 µM
same,TGI,[40],> 100 µM
same,TGI,[41],> 100 µM
same,TGI,[42],> 100 µM
same,TGI,[43],> 100 µM
same,TGI,[44],> 100 µM
same,TGI,[45],> 100 µM
same,TGI,[46],> 100 µM
same,TGI,[47],> 100 µM
same,TGI,[48],11.7 µM
same,TGI,[49],> 100 µM
same,TGI,[50],> 100 µM
same,TGI,[51],> 100 µM
same,TGI,[52],> 100 µM
same,TGI,[53],> 100 µM
same,TGI,[54],> 100 µM
same,TGI,[55],> 100 µM
Cc1cc(C)n(C(=O)CSc2nc3ccc(I)cc3c(=O)n2Cc2ccccc2)n1,TGI,[1],> 100 µM
same,TGI,[2],63.4 µM
same,TGI,[3],> 100 µM
same,TGI,[4],> 100 µM
same,TGI,[5],22.2 µM
same,TGI,[56],> 100 µM
same,TGI,[6],> 100 µM
same,TGI,[7],> 100 µM
same,TGI,[8],> 100 µM
same,TGI,[9],> 100 µM
same,TGI,[10],> 100 µM
same,TGI,[11],> 100 µM
same,TGI,[12],> 100 µM
same,TGI,[13],70.3 µM
same,TGI,[14],53 µM
same,TGI,[15],44.6 µM
same,TGI,[16],> 100 µM
same,TGI,[17],78.8 µM
same,TGI,[18],> 100 µM
same,TGI,[19],> 100 µM
same,TGI,[20],> 100 µM
same,TGI,[21],> 100 µM
same,TGI,[23],> 100 µM
same,TGI,[24],66.3 µM
same,TGI,[25],> 100 µM
same,TGI,[26],> 100 µM
same,TGI,[27],> 100 µM
same,TGI,[28],> 100 µM
same,TGI,[29],> 100 µM
same,TGI,[30],> 100 µM
same,TGI,[57],62.1 µM
same,TGI,[31],> 100 µM
same,TGI,[32],> 100 µM
same,TGI,[33],> 100 µM
same,TGI,[34],> 100 µM
same,TGI,[35],70.3 µM
same,TGI,[36],63.7 µM
same,TGI,[37],> 100 µM
same,TGI,[38],62.4 µM
same,TGI,[39],71 µM
same,TGI,[40],> 100 µM
same,TGI,[41],> 100 µM
same,TGI,[42],> 100 µM
same,TGI,[43],> 100 µM
same,TGI,[58],> 100 µM
same,TGI,[44],> 100 µM
same,TGI,[45],> 100 µM
same,TGI,[46],> 100 µM
same,TGI,[47],63.4 µM
same,TGI,[48],> 100 µM
same,TGI,[49],> 100 µM
same,TGI,[50],> 100 µM
same,TGI,[51],> 100 µM
same,TGI,[52],> 100 µM
same,TGI,[53],> 100 µM
same,TGI,[54],> 100 µM
O=C(Nc1ccc(Cl)cc1)c1cc2c(cc1Cl)Sc1nccn1S2(=O)=O,TGI,[1],> 100 µM
same,TGI,[2],> 100 µM
same,TGI,[3],> 100 µM
same,TGI,[4],> 100 µM
same,TGI,[5],> 100 µM
same,TGI,[56],> 100 µM
same,TGI,[6],> 100 µM
same,TGI,[7],> 100 µM
same,TGI,[8],> 100 µM
same,TGI,[9],> 100 µM
same,TGI,[10],> 100 µM
same,TGI,[11],> 100 µM
same,TGI,[13],> 100 µM
same,TGI,[15],97.4 µM
same,TGI,[16],> 100 µM
same,TGI,[17],> 100 µM
same,TGI,[18],> 100 µM
same,TGI,[19],> 100 µM
same,TGI,[20],> 100 µM
same,TGI,[21],> 100 µM
same,TGI,[22],> 100 µM
same,TGI,[23],> 100 µM
same,TGI,[24],> 100 µM
same,TGI,[25],> 100 µM
same,TGI,[26],> 100 µM
same,TGI,[27],> 100 µM
same,TGI,[28],> 100 µM
same,TGI,[30],> 100 µM
same,TGI,[57],> 100 µM
same,TGI,[31],> 100 µM
same,TGI,[32],> 100 µM
same,TGI,[33],> 100 µM
same,TGI,[34],> 100 µM
same,TGI,[35],> 100 µM
same,TGI,[36],> 100 µM
same,TGI,[38],> 100 µM
same,TGI,[39],> 100 µM
same,TGI,[40],> 100 µM
same,TGI,[41],> 100 µM
same,TGI,[42],> 100 µM
same,TGI,[43],> 100 µM
same,TGI,[58],> 100 µM
same,TGI,[44],> 100 µM
same,TGI,[45],> 100 µM
same,TGI,[46],> 100 µM
same,TGI,[47],25.2 µM
same,TGI,[48],> 100 µM
same,TGI,[49],> 100 µM
same,TGI,[50],> 100 µM
same,TGI,[52],39.6 µM
CC1=C2C(=O)c3ccccc3C(=O)[C@H]2C[C@@H](N2CCCC2=O)O1,TGI,[1],65.5 µM
same,TGI,[2],> 100 µM
same,TGI,[3],> 100 µM
same,TGI,[4],> 100 µM
same,TGI,[5],> 100 µM
same,TGI,[56],81.8 µM
same,TGI,[6],> 100 µM
same,TGI,[7],54.7 µM
same,TGI,[8],> 100 µM
same,TGI,[9],> 100 µM
same,TGI,[11],> 100 µM
same,TGI,[12],> 100 µM
same,TGI,[13],> 100 µM
same,TGI,[14],61.7 µM
same,TGI,[15],> 100 µM
same,TGI,[16],> 100 µM
same,TGI,[17],> 100 µM
same,TGI,[18],> 100 µM
same,TGI,[19],> 100 µM
same,TGI,[20],37.8 µM
same,TGI,[21],34.9 µM
same,TGI,[22],31.8 µM
same,TGI,[23],29.9 µM
same,TGI,[24],> 100 µM
same,TGI,[25],33.1 µM
same,TGI,[26],30 µM
same,TGI,[27],> 100 µM
same,TGI,[29],57.1 µM
same,TGI,[30],> 100 µM
same,TGI,[57],> 100 µM
same,TGI,[31],97 µM
same,TGI,[32],63.9 µM
same,TGI,[33],38.2 µM
same,TGI,[34],42.5 µM
same,TGI,[35],> 100 µM
same,TGI,[36],> 100 µM
same,TGI,[37],49.5 µM
same,TGI,[38],45.3 µM
same,TGI,[39],> 100 µM
same,TGI,[40],> 100 µM
same,TGI,[41],49.1 µM
same,TGI,[42],> 100 µM
same,TGI,[43],> 100 µM
same,TGI,[58],32.7 µM
same,TGI,[44],> 100 µM
same,TGI,[45],> 100 µM
same,TGI,[46],> 100 µM
same,TGI,[47],61 µM
same,TGI,[48],87.7 µM
same,TGI,[49],66.9 µM
same,TGI,[50],53.5 µM
same,TGI,[51],> 100 µM
same,TGI,[52],76.4 µM
same,TGI,[53],> 100 µM
same,TGI,[54],> 100 µM
same,TGI,[55],> 100 µM
CC1(C)NC(C)(C)/C(=N\O)C(=NO)/C1=N/O,TGI,[1],> 100 µM
same,TGI,[3],> 100 µM
same,TGI,[4],> 100 µM
same,TGI,[5],> 100 µM
same,TGI,[56],> 100 µM
same,TGI,[6],> 100 µM
same,TGI,[7],> 100 µM
same,TGI,[8],> 100 µM
same,TGI,[9],> 100 µM
same,TGI,[10],> 100 µM
same,TGI,[11],> 100 µM
same,TGI,[12],> 100 µM
same,TGI,[13],> 100 µM
same,TGI,[14],> 100 µM
same,TGI,[15],> 100 µM
same,TGI,[16],> 100 µM
same,TGI,[17],> 100 µM
same,TGI,[18],> 100 µM
same,TGI,[19],> 100 µM
same,TGI,[20],> 100 µM
same,TGI,[21],> 100 µM
same,TGI,[22],> 100 µM
same,TGI,[23],> 100 µM
same,TGI,[24],> 100 µM
same,TGI,[25],> 100 µM
same,TGI,[26],> 100 µM
same,TGI,[27],> 100 µM
same,TGI,[28],> 100 µM
same,TGI,[29],> 100 µM
same,TGI,[30],> 100 µM
same,TGI,[31],> 100 µM
same,TGI,[32],> 100 µM
same,TGI,[33],> 100 µM
same,TGI,[34],> 100 µM
same,TGI,[35],> 100 µM
same,TGI,[36],> 100 µM
same,TGI,[37],> 100 µM
same,TGI,[38],> 100 µM
same,TGI,[39],> 100 µM
same,TGI,[40],> 100 µM
same,TGI,[41],> 100 µM
same,TGI,[42],> 100 µM
same,TGI,[43],> 100 µM
same,TGI,[58],> 100 µM
same,TGI,[44],> 100 µM
same,TGI,[45],> 100 µM
same,TGI,[46],> 100 µM
same,TGI,[47],> 100 µM
same,TGI,[48],> 100 µM
same,TGI,[49],> 100 µM
same,TGI,[50],> 100 µM
same,TGI,[51],> 100 µM
same,TGI,[52],> 100 µM
same,TGI,[53],> 100 µM
same,TGI,[54],> 100 µM
same,TGI,[55],> 100 µM
